“And” between values parts separate entries of the source, which are not always exact repeats. Equal entries are not always repeated. Inconclusive results and toxic doses are left out.
Tested on: CD2F1 mice, L1210 leukemia ip, survival T/C
Test: NCI In Vivo Anticancer Drug Screen. Data for tumor model L1210 Leukemia (intraperitoneal) in CD2F1 (CDF1) mice
Settings: higher = longer survival
In short: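 Ratio T/C, where T is the treated-group value and C the vehicle-dosed control value, from mice implanted with a transplantable tumor.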

[1] = endpoint: mean survival time, dose: 6.25 mg/kg/injection, schedule: Q01DX009 (ip), vehicle: saline with Tween-80
[2] = endpoint: mean survival time, dose: 12.5 mg/kg/injection, schedule: Q01DX009 (ip), vehicle: saline with Tween-80
[3] = endpoint: mean survival time, dose: 25.0 mg/kg/injection, schedule: Q01DX009 (ip), vehicle: saline with Tween-80
[4] = endpoint: mean survival time, dose: 100.0 mg/kg/injection, schedule: Q04DX003 (ip), vehicle: saline
[5] = endpoint: mean survival time, dose: 200.0 mg/kg/injection, schedule: Q04DX003 (ip), vehicle: saline
[6] = endpoint: mean survival time, dose: 50.0 mg/kg/injection, schedule: Q01DX001 (ip), vehicle: saline
[7] = endpoint: mean survival time, dose: 100.0 mg/kg/injection, schedule: Q01DX001 (ip), vehicle: saline
[8] = endpoint: mean survival time, dose: 100.0 mg/kg/injection, schedule: Q04DX003 (ip), vehicle: saline with Tween-80
[9] = endpoint: mean survival time, dose: 100.0 mg/kg/injection, schedule: Q01DX001 (ip), vehicle: Klucel (hydroxypropylcellulose) (HPC)
[10] = endpoint: mean survival time, dose: 200.0 mg/kg/injection, schedule: Q01DX001 (ip), vehicle: Klucel (hydroxypropylcellulose) (HPC)
[11] = endpoint: mean survival time, dose: 400.0 mg/kg/injection, schedule: Q01DX001 (ip), vehicle: Klucel (hydroxypropylcellulose) (HPC)

O=c1[nH]cc(N(CCCl)CCCl)c(=O)[nH]1
T/C (endpoint: mean survival time, dose: 0.05 mg/kg/injection, schedule: Q01DX009 (ip), vehicle: saline): 101 % of control
T/C (endpoint: mean survival time, dose: 0.08 mg/kg/injection, schedule: Q01DX009 (ip), vehicle: saline): 106 % of control
T/C (endpoint: mean survival time, dose: 0.14 mg/kg/injection, schedule: Q01DX009 (ip), vehicle: saline): 109 % of control
T/C (endpoint: mean survival time, dose: 0.23 mg/kg/injection, schedule: Q01DX009 (ip), vehicle: saline): 112 % of control
T/C (endpoint: mean survival time, dose: 0.23 mg/kg/injection, schedule: Q04DX003 (ip), vehicle: saline): 107 % of control
T/C (endpoint: mean survival time, dose: 0.39 mg/kg/injection, schedule: Q04DX003 (ip), vehicle: saline): 109 % of control
T/C (endpoint: mean survival time, dose: 0.65 mg/kg/injection, schedule: Q01DX001 (ip), vehicle: saline): 115 % of control
T/C (endpoint: mean survival time, dose: 0.65 mg/kg/injection, schedule: Q04DX003 (ip), vehicle: saline): 113 % of control
T/C (endpoint: mean survival time, dose: 1.1 mg/kg/injection, schedule: Q01DX009 (ip), vehicle: saline): 167 % of control
T/C (endpoint: mean survival time, dose: 1.1 mg/kg/injection, schedule: Q04DX003 (ip), vehicle: saline): 151 % of control
T/C (endpoint: mean survival time, dose: 1.8 mg/kg/injection, schedule: Q01DX009 (ip), vehicle: saline): 115 % of control
T/C (endpoint: mean survival time, dose: 1.8 mg/kg/injection, schedule: Q04DX003 (ip), vehicle: saline): 182 % of control
T/C (endpoint: mean survival time, dose: 3.0 mg/kg/injection, schedule: Q01DX001 (ip), vehicle: saline): 163 % of control
T/C (endpoint: mean survival time, dose: 5.0 mg/kg/injection, schedule: Q01DX001 (ip), vehicle: saline): 221 % of control
T/C (endpoint: mean survival time, dose: 5.0 mg/kg/injection, schedule: Q04DX003 (ip), vehicle: saline): 91 % of control
T/C (endpoint: mean survival time, dose: 8.4 mg/kg/injection, schedule: Q01DX001 (ip), vehicle: saline): 110 % of control

ClCCN(CCCl)c1ccc(CNCCCNCc2ccc(N(CCCl)CCCl)cc2)cc1
T/C (endpoint: mean survival time, dose: 1.25 mg/kg/injection, schedule: Q01DX009 (ip), vehicle: saline sonified): 118 % of control
T/C (endpoint: mean survival time, dose: 2.5 mg/kg/injection, schedule: Q01DX009 (ip), vehicle: saline sonified): 118 % of control
T/C (endpoint: mean survival time, dose: 3.3 mg/kg/injection, schedule: Q01DX009 (ip), vehicle: saline sonified): 117 % of control
T/C (endpoint: mean survival time, dose: 5.0 mg/kg/injection, schedule: Q01DX009 (ip), vehicle: saline sonified): 117 % of control
T/C (endpoint: mean survival time, dose: 7.5 mg/kg/injection, schedule: Q01DX009 (ip), vehicle: saline sonified): 121 % of control
T/C (endpoint: mean survival time, dose: 10.0 mg/kg/injection, schedule: Q04DX003 (ip), vehicle: saline with Tween-80): 120 % of control
T/C (endpoint: mean survival time, dose: 20.0 mg/kg/injection, schedule: Q04DX003 (ip), vehicle: saline with Tween-80): 121 % of control
T/C (endpoint: mean survival time, dose: 40.0 mg/kg/injection, schedule: Q04DX003 (ip), vehicle: saline with Tween-80): 120 % of control

O=C(O)C1=CCCc2ccc(F)cc21
T/C (endpoint: median survival time, dose: 50.0 mg/kg/injection, schedule: Q04DX002 (ip), vehicle: saline with Tween-80): 100 % of control
T/C (endpoint: median survival time, dose: 100.0 mg/kg/injection, schedule: Q04DX002 (ip), vehicle: saline with Tween-80): 100 % of control
T/C (endpoint: median survival time, dose: 200.0 mg/kg/injection, schedule: Q04DX002 (ip), vehicle: saline with Tween-80): 88 % of control
T/C (endpoint: median survival time, dose: 400.0 mg/kg/injection, schedule: Q04DX002 (ip), vehicle: saline with Tween-80): 111 % of control

C(=C\c1cc[n+](CCc2ccccc2)cc1)/c1ccccc1
T/C [1]: 104 % of control
T/C [2]: 98 % of control
T/C [3]: 108 % of control

CCCNC(=O)Oc1ccc(C(=O)OCC)cc1
T/C [4]: 97 % of control
T/C [5]: 101 % of control
T/C (endpoint: mean survival time, dose: 400.0 mg/kg/injection, schedule: Q04DX003 (ip), vehicle: saline): 106 % of control

O=c1[nH]c(=O)n(C(c2ccccc2)(c2ccccc2)c2ccccc2)cc1N(CCO)CCO
T/C [6]: 91 % of control
T/C [7]: 100 % of control
T/C (endpoint: mean survival time, dose: 200.0 mg/kg/injection, schedule: Q01DX001 (ip), vehicle: saline): 87 % of control
T/C (endpoint: mean survival time, dose: 400.0 mg/kg/injection, schedule: Q01DX001 (ip), vehicle: saline): 91 % of control

O=C(Nc1cccnc1)c1ccccc1
T/C [1]: 102 % of control
T/C [2]: 102 % of control
T/C [3]: 113 % of control

C[CH2][Sn]([I])([CH2]C)[CH2]C
T/C [1]: 89 % of control

CC12CCC3c4ccc(O)cc4CCC3C1CCC2S (stereo not drawn)
T/C [8]: 88 % of control
T/C (endpoint: mean survival time, dose: 200.0 mg/kg/injection, schedule: Q04DX003 (ip), vehicle: saline with Tween-80): 92 % of control

O=c1ccc2cc(Cl)cc([N+](=O)[O-])c2o1
T/C [9]: 102 % of control
T/C [10]: 99 % of control
T/C [11]: 99 % of control

COc1cc(Cl)c(CC(=O)Cl)cc1OC
T/C (endpoint: mean survival time, dose: 75.0 mg/kg/injection, schedule: Q01DX001 (ip), vehicle: saline): 105 % of control
T/C (endpoint: mean survival time, dose: 150.0 mg/kg/injection, schedule: Q01DX001 (ip), vehicle: saline): 106 % of control
T/C (endpoint: mean survival time, dose: 300.0 mg/kg/injection, schedule: Q01DX001 (ip), vehicle: saline): 95 % of control

CC(C)C(=O)Nc1nc(OCCc2ccc([N+](=O)[O-])cc2)c2ncn(C3CC(O)C(CO)O3)c2n1 (stereo not drawn)
T/C (endpoint: median survival time, dose: 12.5 mg/kg/injection, schedule: Q01DX005 (ip), vehicle: saline with Tween-80): 101 % of control
T/C (endpoint: median survival time, dose: 25.0 mg/kg/injection, schedule: Q01DX005 (ip), vehicle: saline with Tween-80): 97 % of control
T/C (endpoint: median survival time, dose: 50.0 mg/kg/injection, schedule: Q01DX005 (ip), vehicle: saline with Tween-80): 97 % of control
T/C (endpoint: median survival time, dose: 100.0 mg/kg/injection, schedule: Q01DX005 (ip), vehicle: saline with Tween-80): 95 % of control
T/C (endpoint: median survival time, dose: 200.0 mg/kg/injection, schedule: Q01DX005 (ip), vehicle: saline with Tween-80): 86 % of control

O=c1c(Br)cnc2ccccn12
T/C (endpoint: mean survival time, dose: 12.5 mg/kg/injection, schedule: Q01DX001 (ip), vehicle: saline): 107 % of control
T/C (endpoint: mean survival time, dose: 25.0 mg/kg/injection, schedule: Q01DX001 (ip), vehicle: saline): 98 % of control
T/C [6]: 102 % of control

CNCCNc1ccc(NCCNC)c2c1C(=O)c1ccccc1C2=O
T/C (endpoint: mean survival time, dose: 4.0 mg/kg/injection, schedule: Q01DX009 (ip), vehicle: acid diluted with saline): 150 % of control and 157 % of control
T/C (endpoint: mean survival time, dose: 8.0 mg/kg/injection, schedule: Q01DX009 (ip), vehicle: acid diluted with saline): 187 % of control and 195 % of control
T/C (endpoint: mean survival time, dose: 16.0 mg/kg/injection, schedule: Q01DX009 (ip), vehicle: acid diluted with saline): 177 % of control

Oc1ccccc1C=NCCC[N-]CCCN=Cc1ccccc1O.[Co]
T/C (endpoint: mean survival time, dose: 6.25 mg/kg/injection, schedule: Q01DX009 (ip), vehicle: saline): 102 % of control and 103 % of control
T/C (endpoint: mean survival time, dose: 12.5 mg/kg/injection, schedule: Q01DX009 (ip), vehicle: saline): 100 % of control and 103 % of control
T/C (endpoint: mean survival time, dose: 25.0 mg/kg/injection, schedule: Q01DX009 (ip), vehicle: saline): 110 % of control and 111 % of control
T/C (endpoint: mean survival time, dose: 50.0 mg/kg/injection, schedule: Q01DX009 (ip), vehicle: saline): 113 % of control and 100 % of control
T/C (endpoint: mean survival time, dose: 100.0 mg/kg/injection, schedule: Q01DX009 (ip), vehicle: saline): 104 % of control

CC1CC2CC(=O)CCC2(C)C2CCC3(C)C(O)CCC3C12 (stereo not drawn)
T/C (endpoint: mean survival time, dose: 18.75 mg/kg/injection, schedule: Q01DX009 (ip), vehicle: Klucel (hydroxypropylcellulose) (HPC)): 100 % of control
T/C (endpoint: mean survival time, dose: 37.5 mg/kg/injection, schedule: Q01DX009 (ip), vehicle: Klucel (hydroxypropylcellulose) (HPC)): 100 % of control
T/C (endpoint: mean survival time, dose: 75.0 mg/kg/injection, schedule: Q01DX009 (ip), vehicle: Klucel (hydroxypropylcellulose) (HPC)): 100 % of control
T/C (endpoint: mean survival time, dose: 150.0 mg/kg/injection, schedule: Q01DX009 (ip), vehicle: Klucel (hydroxypropylcellulose) (HPC)): 95 % of control
T/C (endpoint: mean survival time, dose: 300.0 mg/kg/injection, schedule: Q01DX009 (ip), vehicle: Klucel (hydroxypropylcellulose) (HPC)): 95 % of control

C=CN(C)OC
T/C [7]: 100 % of control

CCCC1C(=O)N=C(N)NC1=O (stereo not drawn)
T/C [9]: 97 % of control
T/C [10]: 104 % of control
T/C [11]: 101 % of control

C1=CC2CCC[N-]C2N1.C1=CC2CCC[N-]C2N1.[I][Pt+2][I] (stereo not drawn)
T/C (endpoint: mean survival time, dose: 25.0 mg/kg/injection, schedule: Q04DX003 (ip), vehicle: saline): 98 % of control
T/C (endpoint: mean survival time, dose: 50.0 mg/kg/injection, schedule: Q04DX003 (ip), vehicle: saline): 101 % of control
T/C [4]: 102 % of control
T/C [5]: 107 % of control

CC(=O)CC(Br)CBr (stereo not drawn)
T/C [8]: 96 % of control

CC1Cc2ccccc2C1=O (stereo not drawn)
T/C (endpoint: mean survival time, dose: 100.0 mg/kg/injection, schedule: Q01DX009 (ip), vehicle: saline with Tween-80): 90 % of control
T/C (endpoint: mean survival time, dose: 200.0 mg/kg/injection, schedule: Q01DX009 (ip), vehicle: saline with Tween-80): 91 % of control
T/C (endpoint: mean survival time, dose: 400.0 mg/kg/injection, schedule: Q01DX009 (ip), vehicle: saline with Tween-80): 94 % of control
